Measured values from PubChem BioAssay (NCI).
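Grown in 96-well plates, cells were treated for 48 hours with each compound at five concentrations. Insufficient inhibition: endpoint recorded as highest concentration tested. Here, GI50 denotes the concentration required for 50% inhibition of growth. Definition used: TGI = concentration required for complete inhibition of growth.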

tested on: OVCAR-4 ovarian; assay: growth of human tumour cells (NCI), 48 h

| Compound | TGI [µM] | GI50 [µM] |
| --- | --- | --- |
| COP(=O)(CC(=O)C1OC(OCc2ccccc2)C(OCc2ccccc2)C(OCc2ccccc2)C1OCc1ccccc1)OC (centres undefined) | 8.89 | – |
| OC(c1ccco1)C(F)(F)c1nc2ccccc2o1 (centres undefined) | > 100 | – |
| CCOC1NC(=O)c2ccccc21 (centres undefined) | > 100 | – |
| CCN(C(=O)N[C@H](C(=O)N[C@@H](C)C(=O)OC)C(C)C)c1ccccc1 | > 100 | – |
| Cc1cn(C2CC(OC(c3ccccc3)(c3ccccc3)c3ccccc3)C(COC(c3ccccc3)(c3ccccc3)c3ccccc3)O2)c(=O)[nH]c1=O (centres undefined) | > 100 | – |
| Cc1cc2c(cc1Cl)SC(NNc1cnc3ccccc3n1)=NS2(=O)=O | > 100 | – |
| O=CN(O)CC(=O)O | > 100 | – |
| C(=N/Nc1ccc(-c2nc3ccccc3[nH]2)cc1)/c1c(-c2ccccc2)[nH]c2ccccc12 | > 100 | – |
| O=S1(=O)c2ccccc2NC(=S)N1c1ccccc1 | > 100 | – |
| COC(=O)C(CCSC)NC(=O)CSc1nnc(COc2ccc(Cl)cc2)n1-c1ccccc1 (centres undefined) | 31.8 | – |
| Cc1ccc(-n2cc(-c3ccc(Cl)cc3)c3c2N=CN2NC(c4ccco4)=NC32)cc1 (centres undefined) | 4.03 | – |
| COc1cc(/C=C/c2cc(=O)cc(/C=C/c3ccc(O)c(OC)c3)o2)ccc1O | > 100 | – |
| COn1cc(CO)c2ccccc21 | > 100 | – |
| NNC(=O)c1cccc2c1Oc1ccccc1S2 | > 100 | – |
| COc1cc2nc(-c3c(F)cccc3F)n(Cc3c(F)cccc3F)c2cc1Cc1c(F)cccc1F | 10.9 | – |
| O=C(/C=C1\C[C@H]2C=Nc3ccccc3C(=O)N2C1)NCCCCCNC(=O)/C=C1\C[C@H]2C=Nc3ccccc3C(=O)N2C1 | 26.4 | – |
| NC(=S)N=Nc1c(O)cc(Nc2ccc(Cl)cc2Cl)c2ccccc12 | > 100 | – |
| CC[P+](C#Cc1ccccc1)(c1ccccc1)c1ccccc1 | 12.3 | – |
| Cc1ccc(C(=O)c2[nH]c(Nc3cc(C)ccn3)c(C(=S)Nc3ccccc3)c2N)cc1 | > 100 | – |
| CC(C)Cc1c(C#N)c(C#N)c(N)n1Cc1ccccc1 | > 100 | – |
| CNc1ccc2c(c1)Cc1ccccc1-2 | > 100 | – |
| CCOC(=O)c1csc(NC(=O)CCCC#N)n1 | > 100 | – |
| O=c1cc(-c2ccccc2F)[nH]c2cc3c(cc12)OCO3 | > 100 | – |
| CC(C)(C)c1ccc2c(c1)OCc1n[nH]c(n1)COc1cc(C(C)(C)C)ccc1OCCOCCO2 | 7.45 | – |
| COc1ccc(CCCCl)c(C2=NCCc3ccccc32)c1 | > 100 | – |
| O=C(CN=C(CN(c1ccccc1)c1ccccc1)Oc1c(Cl)cc(Cl)cc1Cl)n1cnc2ccccc21 | > 100 | – |
| Nc1n[nH]c2ccccc12 | > 100 | – |
| COC(=O)[C@H]1C=C[C@H](OC2OC(COC(C)=O)C(OC(C)=O)C(OC(C)=O)C2OC(C)=O)n2c(=O)n(-c3ccccc3)c(=O)n21 (some centres undefined) | 32.9 | 4.14 |

tested on: NCI-H226 lung; assay: growth of human tumour cells (NCI), 48 h

| Compound | TGI [µM] |
| --- | --- |
| CC1(C)[C@@H]2C[C@H]1c1cnc(-c3ccccn3)cc1[C@H]2C(O)[C@@H]1c2cc(-c3ccccn3)ncc2[C@H]2C[C@@H]1C2(C)C (some centres undefined) | 0.502 |
| CCOC(=O)Cc1nn2c(=O)cc(C)nc2s1 | > 100 |
| COP(=O)(CC(=O)C1OC(OCc2ccccc2)C(OCc2ccccc2)C(OCc2ccccc2)C1OCc1ccccc1)OC (centres undefined) | 54 |
| OC(c1ccco1)C(F)(F)c1nc2ccccc2o1 (centres undefined) | > 100 |
| CCOC1NC(=O)c2ccccc21 (centres undefined) | > 100 |
| CCN(C(=O)N[C@H](C(=O)N[C@@H](C)C(=O)OC)C(C)C)c1ccccc1 | > 100 |
| Cc1cn(C2CC(OC(c3ccccc3)(c3ccccc3)c3ccccc3)C(COC(c3ccccc3)(c3ccccc3)c3ccccc3)O2)c(=O)[nH]c1=O (centres undefined) | 88.7 |
| Cc1cc2c(cc1Cl)SC(NNc1cnc3ccccc3n1)=NS2(=O)=O | > 100 |
| O=CN(O)CC(=O)O | > 100 |
| C(=N/Nc1ccc(-c2nc3ccccc3[nH]2)cc1)/c1c(-c2ccccc2)[nH]c2ccccc12 | 6.47 |
| O=S1(=O)c2ccccc2NC(=S)N1c1ccccc1 | > 100 |
| COC(=O)C(CCSC)NC(=O)CSc1nnc(COc2ccc(Cl)cc2)n1-c1ccccc1 (centres undefined) | 43.3 |
| Cc1ccc(-n2cc(-c3ccc(Cl)cc3)c3c2N=CN2NC(c4ccco4)=NC32)cc1 (centres undefined) | 68.6 |
| COc1cc(/C=C/c2cc(=O)cc(/C=C/c3ccc(O)c(OC)c3)o2)ccc1O | 98.3 |
| COn1cc(CO)c2ccccc21 | 6.35 |
| NNC(=O)c1cccc2c1Oc1ccccc1S2 | > 100 |
| COc1cc2nc(-c3c(F)cccc3F)n(Cc3c(F)cccc3F)c2cc1Cc1c(F)cccc1F | > 100 |
| O=C(/C=C1\C[C@H]2C=Nc3ccccc3C(=O)N2C1)NCCCCCNC(=O)/C=C1\C[C@H]2C=Nc3ccccc3C(=O)N2C1 | > 70.4 |
| NC(=S)N=Nc1c(O)cc(Nc2ccc(Cl)cc2Cl)c2ccccc12 | > 100 |
| CC[P+](C#Cc1ccccc1)(c1ccccc1)c1ccccc1 | 8.69 |
| Cc1ccc(C(=O)c2[nH]c(Nc3cc(C)ccn3)c(C(=S)Nc3ccccc3)c2N)cc1 | > 100 |
| CC(C)Cc1c(C#N)c(C#N)c(N)n1Cc1ccccc1 | > 100 |
| CNc1ccc2c(c1)Cc1ccccc1-2 | > 100 |
| CCOC(=O)c1csc(NC(=O)CCCC#N)n1 | > 100 |
| O=c1cc(-c2ccccc2F)[nH]c2cc3c(cc12)OCO3 | 1.81 |
| CC(C)(C)c1ccc2c(c1)OCc1n[nH]c(n1)COc1cc(C(C)(C)C)ccc1OCCOCCO2 | 8.97 |
| COc1ccc(CCCCl)c(C2=NCCc3ccccc32)c1 | > 100 |
| O=C(CN=C(CN(c1ccccc1)c1ccccc1)Oc1c(Cl)cc(Cl)cc1Cl)n1cnc2ccccc21 | > 100 |
| Nc1n[nH]c2ccccc12 | > 100 |
| COC(=O)[C@H]1C=C[C@H](OC2OC(COC(C)=O)C(OC(C)=O)C(OC(C)=O)C2OC(C)=O)n2c(=O)n(-c3ccccc3)c(=O)n21 (some centres undefined) | 20.5 |

tested on: HL-60(TB) leukemia; assay: growth of human tumour cells (NCI), 48 h

| Compound | TGI [µM] |
| --- | --- |
| CC1(C)[C@@H]2C[C@H]1c1cnc(-c3ccccn3)cc1[C@H]2C(O)[C@@H]1c2cc(-c3ccccn3)ncc2[C@H]2C[C@@H]1C2(C)C (some centres undefined) | 0.112 |
| CCOC(=O)Cc1nn2c(=O)cc(C)nc2s1 | > 100 |
| COP(=O)(CC(=O)C1OC(OCc2ccccc2)C(OCc2ccccc2)C(OCc2ccccc2)C1OCc1ccccc1)OC (centres undefined) | 23.7 |
| OC(c1ccco1)C(F)(F)c1nc2ccccc2o1 (centres undefined) | > 100 |
| CCOC1NC(=O)c2ccccc21 (centres undefined) | > 100 |
| CCN(C(=O)N[C@H](C(=O)N[C@@H](C)C(=O)OC)C(C)C)c1ccccc1 | > 100 |
| Cc1cn(C2CC(OC(c3ccccc3)(c3ccccc3)c3ccccc3)C(COC(c3ccccc3)(c3ccccc3)c3ccccc3)O2)c(=O)[nH]c1=O (centres undefined) | > 100 |
| Cc1cc2c(cc1Cl)SC(NNc1cnc3ccccc3n1)=NS2(=O)=O | > 100 |
| O=CN(O)CC(=O)O | > 100 |
| C(=N/Nc1ccc(-c2nc3ccccc3[nH]2)cc1)/c1c(-c2ccccc2)[nH]c2ccccc12 | 1.06 |
| O=S1(=O)c2ccccc2NC(=S)N1c1ccccc1 | > 100 |
| COC(=O)C(CCSC)NC(=O)CSc1nnc(COc2ccc(Cl)cc2)n1-c1ccccc1 (centres undefined) | 38.6 |
| Cc1ccc(-n2cc(-c3ccc(Cl)cc3)c3c2N=CN2NC(c4ccco4)=NC32)cc1 (centres undefined) | > 100 |
| COc1cc(/C=C/c2cc(=O)cc(/C=C/c3ccc(O)c(OC)c3)o2)ccc1O | > 100 |
| COn1cc(CO)c2ccccc21 | > 100 |
